Reference: patent EP0088462A2, “Anti-inflammatory and rheumatic composition containing organophosphonate and steroid” (THE PROCTER & GAMBLE COMPANY, priority 1982, dated 1983)
Marks after values point to notes of the source that are not given here.

System: rat adjuvant arthritis
Experiment: Rat adjuvant arthritis (Example I): paw edema, bone changes and systemic parameters after 46 days of daily treatment
Format: in vivo, male Lewis rats
Settings: for Group Average Fat Free Dry Weight of Bone from Tibias: daily
Source text: One hundred and twenty-five (125) male Lewis rats weighing between 160 and 180 grams each were randomly divided into 12 groups of ten rats each, except the vehicle control group which had 15 rats. Each group was placed under a treatment regimen as described in the table below for a 46 day period.
Adjuvant arthritis was induced in groups one through twelve by a single intradermal injection of heat-killed Mycobacterium butyricum in paraffin oil. The drug treatments wen begun on the same day that the adjuvant was administered, and continued on a daily basis through the study. Drug doses were adjusted each week for changes in body weight.
Paw edema was measured weekly by liquid displacement, immersing the hind legs in a liquid reservoir to the anatomical hair line. Bone changes were evaluated radiographically and by chemical analysis at the conclusion of the study. Ectopic calcification was quantitated by use of a point-counting system with grids of one millimeter square.
The diphosphonate treatment solution for use on the animals in group 2, 3, 7-12, was prepared as follows: the disodium salt of dichloromethane diphosphonic acid was dissolved in saline, adjusted to a pH of 7.4 using sodium hydroxide, and sterilized by vacuum filtration (0.2 micron). The concentration of this solution was adjusted to a concentration of 5 mg of C12 MDP (disodium salt) per milliliter of solution.
The prednisolone to be administered was suspended in […]. The concentration of this suspension was adjusted to 0.10 milligram per milliliter so that it could be administered at a dose volume of 0.5 ml/100 gm body weight.
The disodium salt of Cl2MDP was administered by subcutaneous ventral flank injections. The prednisolone was administered by gastric intubation.
At the end of the treatment period, the rats were sacrificed, necropsied, and the effects of the treatment on the rats were measured in the categories listed below.

[1] = single agent versus placebo (saline and methyl cellulose)

| Compound | Group Average Fat Free Dry Weight of Bone from Tibias (Cl2MDP none, Prednisolone 0.25 mg/kg by gastric intubation) | Group Average Fat Free Dry Weight of Bone from Tibias (Cl2MDP none, Prednisolone 0.50 mg/kg by gastric intubation) | Group Average Fat Free Dry Weight of Bone from Tibias (Cl2MDP none, Prednisolone 2.50 mg/kg by gastric intubation) | inhibiting pathological caldivication (prednisolone alone) | inhibiting the calcium and phosphorus in bone (prednisolone alone) | inhibiting paw edema [1] | Group Average Fat Free Dry Weight of Bone from Tibias (Cl2MDP 2 mg/kg subcutaneous, Prednisolone none) | Group Average Fat Free Dry Weight of Bone from Tibias (Cl2MDP 5 mg/kg subcutaneous, Prednisolone none) | inhibiting bone changes associated with arthritic disease [1] | inhibiting loss of body, weight [1] | inhibiting spleen weight/body weight ratio [1] |
| --- | --- | --- | --- | --- | --- | --- | --- | --- | --- | --- | --- |
| C[C@]12C=CC(=O)C=C1CC[C@@H]1[C@@H]2[C@@H](O)C[C@@]2(C)[C@H]1CC[C@]2(O)C(=O)CO [Prednisolone, 11 β, 17, 21-Trihydroxypregna-1,4-diene-3, 20-dione] | 308.96 | 311.56 | 315.58 | effective | effective | effective | – | – | – | – | – |
| O=P(O)(O)C(Cl)(Cl)P(=O)(O)O [Cl2MDP, Dichloromethanediphosphonic acid] | – | – | – | – | – | significantly more effective than the placebo | 372.48* | 382.42* | significantly more effective than the placebo | significantly more effective than the placebo | significantly more effective than the placebo |
